The target in assay [1] is T1, IDO1 (Homo sapiens, UniProt P14902). Kind of assay: IDO1 Cellular Assay in HeLa Cells Stimulated with IFNγ. The following applies: IFNγ 100 ng/mL, 300 uM L-tryptophan, about 48 hours, read-out: IDO HeLa Cell Assay, IC50. The assay is classed as cell-based. The method, then:
Biological Assays IDO1 Cellular Assay in HeLa Cells Stimulated with IFNγ
HeLa cells were cultured in complete HeLa culture medium (90% EMEM, 10% heat-inactivated fetal bovine serum) and expanded to about 1×10^9 cells. The cells were then collected and frozen down at 1×10^7 cells/vial in 1 mL frozen medium (90% complete HeLa culture medium, 10% DMSO).
Compounds to be tested were serially diluted in ten 3-fold steps in DMSO starting from 10 mM DMSO stocks in Echo low volume plate(s). Compound dilutions or DMSO alone were then dispensed from the dilution plate(s) into Greiner black 384-well assay plate(s) (catalog #781086, 50 nL/well) using an Echo 550 acoustic liquid handler (Labcyte).
Frozen HeLa cells were thawed and transferred into HeLa assay medium (99% complete HeLa culture medium, 1% Pen/Strep) with 20 mL medium/vial of cells. The cells were spun down at 250 g in a table top centrifuge for 5 min and suspended in same volume of HeLa assay medium. The cells were then counted and adjusted to a density of 2×10^5 cells/mL in HeLa assay medium. Sterile L-tryptophan were added to the cells with final concentration of 300 uM L-tryptophan. A small aliquot (2 mL/plate) of HeLa cells were set aside and were not treated with IFNγ, to serve as the Max-E control.
HeLa cells with and without IFNγ were dispensed to the respective wells of 384-well assay plates containing the compounds. The plates were incubated for about 48 hours at a 37° C., 5% CO2 incubator. Afterwards, 12 μL of 0.5 M methyl isonipecotate in dimethyl sulfoxide were added into each well and the plates were sealed and incubated at 37° C. without CO2 overnight. The plates were centrifuged for 1 min at 200×g. The resulting fluorescence was measured in a Spectramax plate reader (Molecular Devices) with a 400 nm excitation filter and a 510 nm emission filter.
The fluorescence intensity of each well was corrected for the background observed in wells with non-IFNγ-treated cells and was expressed as a fraction of the intensity observed in wells of IFNγ-treated cells and DMSO only. Potencies were calculated by linear least squares fit to the four parameter logistic IC50 equation.

The target in assay [2] is T1, IDO1. Kind of assay: IDO1 Human Whole Blood Assay. The format is cell-based. On the set-up: Human whole blood was drawn in sodium heparin coated tubes from healthy internal donors; from tissue; host or cells: Human whole blood from healthy donors, stimulated with LPS and IFNγ. The following applies: LPS and IFNγ 100 ng/mL, 18 h, kynurenine by LC/MS/MS. The method, then:
IDO1 Human Whole Blood Assay
Compounds to be tested were serially diluted in ten 3-fold steps in DMSO starting from 10 mM. 3 µL of compound dilutions or DMSO alone were then dispensed from the dilution plate into a polypropylene 96-well assay plate containing 97 µL of RPMI medium using an Echo 555 acoustic liquid handler (Labcyte). LPS (lipopolysaccharide) and IFNγ was prepared in RPMI to a 10× of final conc. (1000 ng/mL), final concentration is 100 ng/mL.
Human whole blood was drawn in sodium heparin coated tubes from healthy internal donors. 240 µL of blood was transferred to each of the wells of a v-bottom 96 well plate. 30 µL of compound was transferred from intermediate dilution plate, and incubated for 15 min. 30 μL from stimulants was then transferred to blood and mixed thoroughly. Plate was covered with breathable membrane and incubated at 37° C. for overnight (18 h).
On day 2, isotope labeled standard solutions of kunurenine and tryptophan was made in water at 10× concentration and 30 µL was added to the blood at 3 µM final concentration. The assay plates were centrifuged at 300×G for 10 min with no brake to separate plasma from red blood cells. 60 µL of plasma samples was removed without disturbing red blood cells. Plasma was diluted with RPMI medium in 1:1 ratio and proteins were precipitated out with two volumes of Acetonitrile. The plates were centrifuged at 4000×G for 60 min. 20 µL of supernatant was carefully transferred to a 384 well plate containing 40 µL of 0.1% formic acid in water and analyzed by LC/MS/MS.
LC/MS/MS analyses were performed using Thermo Fisher's LX4-TSQ Quantum Ultra system. This system consists of four Agilent binary high-performance liquid chromatography (HPLC) pumps and a TSQ Quantum Ultra triple quadrupole MS/MS instrument. For each sample, 5 µL were injected onto an Atlantis T3 column (2.1 mm×150 mm, 3 µm particle size) from Waters. The mobile phase gradient pumped at 0.8 mL/min was used to elute the analytes from the column at 25° C. The elution started at 0% B increasing linearly to 25% B at 6.5 min, holding at 25% for 1 min, re-equilibrating to 10 min. Mobile phase A consisted of 0.1% formic acid in water. Mobile phase B consisted of 0.1% of formic acid in acetonitrile. Data was acquired in positive mode using a HESI interface. The operational parameters for the TSQ Quantum Ultra instrument were a spray voltage of 4000 V, capillary temperature of 380° C., vaporizer temperature 400° C., shealth gas 60 arbitrary units, Aux gas 20 arbitrary units, tube lens 85 and collision gas 1.2 mTorr. SRM (selected-reaction monitoring) chromatograms of kynurenine (Q1: 209.2>Q3:94.0) and internal standard (Q1: 215.3>Q3:98.2) were collected for 90 sec. The peak area was integrated by Xcalibur Quan software. The ratios between the kynurenine generated in the reaction and 2D6-Kynurenine spiked-in internal standard were used to generate percentage inhibition and IC50 values. Compounds were titrated and IC50's were calculated by 4 parameter sigmoidal curve fitting formula.

T1 sequence (P14902 whole entry): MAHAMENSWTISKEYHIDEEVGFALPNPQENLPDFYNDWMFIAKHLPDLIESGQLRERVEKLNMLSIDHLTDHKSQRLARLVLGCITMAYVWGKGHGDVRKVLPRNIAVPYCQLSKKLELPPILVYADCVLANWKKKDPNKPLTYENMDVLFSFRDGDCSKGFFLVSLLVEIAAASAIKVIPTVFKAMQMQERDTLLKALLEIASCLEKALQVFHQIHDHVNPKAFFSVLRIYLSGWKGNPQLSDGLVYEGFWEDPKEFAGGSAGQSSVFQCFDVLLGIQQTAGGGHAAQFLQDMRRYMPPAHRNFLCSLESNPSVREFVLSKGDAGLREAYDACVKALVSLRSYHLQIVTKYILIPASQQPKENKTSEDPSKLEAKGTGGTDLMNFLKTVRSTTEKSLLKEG

Regarding `N#Cc1cccc(C(=O)Nc2ccc(C3(c4nc5ccc(C#N)cc5[nH]4)CC(F)C3)cc2)c1` (stereo not drawn) [Example 26, 3-Cyano-N-(4-(1-(6-cyano-1H-benzo[d]imidazol-2-yl)-3-fluorocyclobutyl)phenyl)benzamide], the IC50 (in general, the concentration needed to halve the response being measured) was determined as 1.84 nM at IDO1 [1] and 182 nM on IDO1 [2].
On to `O=C(Nc1ccc(C2(c3nc4ncc(C(F)(F)F)cc4[nH]3)CCC2)cc1)c1cccc(Cl)c1` [Example 1, 3-Chloro-N-(4-(1-(6-(trifluoromethyl)-1H-imidazo[4,5-b]pyridin-2-yl)cyclobutyl)phenyl)benzamide], for which the IC50 on IDO1 [1] turned out to be 1.53 nM; at IDO1 [2], 74.7 nM.
Taken in the same sequence, the figures for `O=C(Nc1ccc(C2(c3nc4ncc(Cl)cc4[nH]3)CC(F)(F)C2)cc1)c1cccc(Cl)c1` [Example 24, 3-Chloro-N-(4-(1-(6-chloro-1H-imidazo[4,5-b]pyridin-2-yl)-3,3-difluorocyclobutyl)phenyl)benzamide] were 1.85 nM and 120 nM.
Regarding `N#Cc1cccc(C(=O)Nc2ccc(C3(c4nc5ccc(Cl)cc5[nH]4)CC(F)C3)cc2)c1` (stereo not drawn) [Example 25, N-(4-(1-(6-chloro-1H-benzo[d]imidazol-2-yl)-3-fluorocyclobutyl)phenyl)-3-cyanobenzamide], the figures for the IC50 on IDO1 [1] and on IDO1 [2] were 1.07 nM and 47.6 nM, respectively.
`OCc1cc(C(F)(F)F)ncc1-c1ccc(C2(c3nc4ncc(Cl)cc4[nH]3)COC2)cc1` [Example 50, (5-(4-(3-(6-chloro-1H-imidazo[4,5-b]pyridin-2-yl)oxetan-3-yl)phenyl)-2-(trifluoromethyl)pyridin-4-yl)methanol]: the IC50 came to 3.03 nM on IDO1 [1] and 4040 nM at IDO1 [2].
As for `OCc1cc(C(F)(F)F)ncc1-c1ccc(C2(c3nc4ccc(Cl)cc4[nH]3)COC2)cc1` [Example 51, [5-{4-[3-(6-chloro-1H-benzimidazol-2-yl)oxetan-3-yl]phenyl}-2-(trifluoromethyl)pyridin-4-yl]methanol], the IC50 was found to be 1.76 nM at IDO1 [1] and 284 nM on IDO1 [2].
`OCc1cc(C(F)(F)F)ncc1-c1ccc(C2(c3nc4ncc(Cl)cc4[nH]3)CCC2)cc1` [Example 46, [5-{4-[1-(6-chloro-1H-imidazo[4,5-b]pyridin-2-yl)cyclobutyl]phenyl}-2-(trifluoromethyl)pyridin-4-yl]methanol]: the figures for the IC50 on IDO1 [1] and against IDO1 [2] were 2.28 nM and 238 nM, respectively.
On the same counts, the results for `N#Cc1cccc(C(=O)Nc2ccc(C3(c4nc5ccc(Cl)cc5[nH]4)COC3)cc2)c1` [Example 11, N-(4-(3-(6-chloro-1H-benzo[d]imidazol-2-yl)oxetan-3-yl)phenyl)-3-cyanobenzamide] are 1.56 nM and 22.9 nM.
Taken in the same sequence, the figures for `N#Cc1cccc(C(=O)Nc2ccc(C3(c4nc5ncc(Cl)cc5[nH]4)CCC3)cc2)c1` [Example 10, N-{4-[1-(6-chloro-1H-imidazo[4,5-b]pyridin-2-yl)cyclobutyl]phenyl}-3-cyanobenzamide] were 3.25 nM and 132 nM.
On the same counts, the results for `Cc1cc(OC(F)F)nc(C)c1-c1ccc(C2(c3nc4cc(C(F)(F)F)cnc4[nH]3)COC2)cc1` [Example 42, 2-(3-{4-[6-(difluoromethoxy)-2,4-dimethylpyridin-3-yl]phenyl}oxetan-3-yl)-6-(trifluoromethyl)-3H-imidazo[4,5-b]pyridine] are 2.16 nM and 445 nM.
Take `N#Cc1cccc(C(=O)Nc2ccc(C3(c4nc5cc(Br)cnc5[nH]4)CCC3)cc2F)c1` [Example 16, N-(4-(1-(6-bromo-3H-imidazo[4,5-b]pyridin-2-yl)cyclobutyl)-2-fluorophenyl)-3-cyanobenzamide]: the IC50 on IDO1 [1] turned out to be 1.17 nM; on IDO1 [2], 35.5 nM.
Taken in the same sequence, the figures for `OCc1cc(C(F)(F)F)ncc1-c1ccc(C2(c3nc4cc(C(F)(F)F)cnc4[nH]3)COC2)cc1` [Example 45, [2-(trifluoromethyl)-5-(4-{3-[6-(trifluoromethyl)-3H-imidazo[4,5-b]pyridin-2-yl]oxetan-3-yl}phenyl)pyridin-4-yl]methanol] were 15.4 nM and 2700 nM.

These data come from US11208407B2, “Substituted phenyl compounds as indoleamine 2,3-dioxygenase (IDO) inhibitors” (Merck Sharp & Dohme Corp., priority 2017, dated 2021).
